The target of data set [1] is T1, PfHPPK-GFP (Plasmodium falciparum, UniProt Q25704). Kind of data set: KinaseGlo enzyme inhibition assay. In kind it is biochemical. As to conditions: 1 mM compound, 10 μM HMDP and 10 μM ATP, 20 min at RT; read-out: Inhib. at 1 mM (%). As to the method:
For all the compounds displaying a measurable change of Tm, PfHPPK inhibition was recorded at 10 μM HMDP and ATP and 1 mM compound using the KinaseGlo assay. These conditions were chosen to be in the reported Km range for both HMDP and ATP substrates, enabling detection of both competitive and uncompetitive inhibitors. Compounds were incubated with HMDP, ATP and HPPK-GFP for 20 min at RT, followed by addition of the KinaseGlo reagent. After 10 min equilibration, luminescence was recorded, which directly reflects the quantity of ATP left in solution at the end of the reaction. Percentages of inhibition were calculated based on a DMSO positive control and a negative control lacking HPPK-GFP. Compounds structures, ΔTm and levels of inhibition appear in Table 1 and Table 2.
PfHPPK-GFP inhibition assay was carried using the KinaseGlo Plus kit (Promega, Madison, WI, USA). In a black 96-well plate were dispensed test compounds (1 μL of 50 mM DMSO stock), master mix (100 mM Tris pH 9, 10 mM β-mercapto ethanol, 10 mM MgSO4, 0.01% w/v BSA, 10 μM HMDP and 10 μM ATP). Reaction was initiated by addition of 2 μg of enzyme, reaching a total reaction volume of 50 μL, and reaction was allowed to proceed for 20 min at RT shaking at 300 rpm. Reaction was then quenched by addition of 50 μL KinaseGlo reagent and allowed to equilibrate for 10 min at RT shaking at 300 rpm. Luminescence was recorded on a Biotek Synergy H1 plate reader (Agilent, Santa Clara, CA, USA) using an integration time of 1 s per well. Percentage of inhibition was calculated related to a positive control experiment (no enzyme added) and a negative control experiment (no inhibitor added).
In general terms: In Kinase-Glo more light means more ATP remaining.

Data set [2] concerns Vero cell line (African green monkey kidney cells). Kind of data set: Cytotoxicity, sulforhodamine B assay, Vero cells. In kind it is cell-based. As to conditions: Chlorocebus sabaeus, 72 h, when no IC50 could be determined, highest tested concentration noted. On the technique in general: Sulforhodamine B stains cellular protein and so reports cell mass.
The nature of data set [3]: Metabolic stability in human liver microsomes. The note with it: for microsomal CLint: human, liver microsomes. As to the method:
(§1) Intrinsic clearance was also measured in both human and rat liver microsomes in order to assess sensitivity to metabolic degradation.
(§2) Metabolic stability of test compounds was determined in human and rat liver microsomes. The assay was adapted from a previously published method. Briefly, the test compounds were mixed with liver microsomes, and the metabolic reactions were initiated by the addition of NADPH. Acetonitrile containing an internal standard (labetalol) was added at 0, 5, 10, 30, and 60 min to stop the reactions. Samples were processed, and the remaining compounds in the reactions were detected using a LC-MS/MS. Distribution coefficient, solubility and polar surface area were predicted using Marvin software. Partition coefficient was predicted using ACD/Labs software.
(Liver microsomes are vesicles of endoplasmic reticulum, rich in cytochrome P450 enzymes.)

Data set [4] is described as follows: Metabolic stability in rat liver microsomes. As to conditions: for microsomal CLint: rat, liver microsomes. The procedure: as §1, §2
In data set [5] the target is T1, PfHPPK-GFP. Kind of data set: DSF-GTP (GFP-tagged protein differential scanning fluorimetry) thermal shift. It counts as binding. As to conditions: for ΔTm at 1000 µM: read-out: ΔTm (°C). The procedure:
In a preliminary screening experiment, buffer conditions were investigated, searching for conditions that provide the largest thermal shift in the presence of 1 mM ATP. DSF curves were recorded under a total of 17 different conditions, with variations in buffer nature and pH, salts nature and concentration, effect of reducing agent, MgSO4 and glycerol.
From there, protein binding properties of the hit compounds were assessed experimentally using the developed DSF-GTP assay. A total of 54 compounds were tested, including virtual screening hits and closely related structures. According to our protocol, each compound was mixed with PfHPPK-GFP and submitted to a temperature gradient from 30 °C to 90 °C at 1 °C/min while GFP fluorescence was recorded. The first derivative of the resulting curve was used to determine the melting temperature (Tm). For each set of experiments, a negative control containing DMSO was added, and ΔTm values were calculated for each compound vs. the DMSO control. […] Two compound families were identified as the most promising by our DSF-GTP assay: 5-phenylazo-2,4-diaminopyrimidines (series 1) and phenyltriazolyl-2-amino-4-pyrimidinone (series 2). In series 2, linkers of different lengths that separate the phenyl triazolyl and the pyrimidine moieties were included.
In a typical DSF-GTP experiment, a master mix containing buffer and PfHPPK-GFP was prepared in a microcentrifuge tube, corresponding to a final protein concentration of 20 μg/mL. Ligands of interest were dispensed in low-profile 96-well plates (Bio-Rad) to 1 mM final concentration, and the master mix was dispensed to a final volume of 50 μL per well. In these conditions, DMSO content was maintained constant at 2%. The microplate was sealed with adhesive film and mixed by shaking for 2 min at 800 rpm at RT. The microplate was then submitted to a DSF run on a CFX96 RT-PCR (Bio-Rad, Hercules, CA, USA). DSF program was designed by starting with a 3 min equilibration phase at 30 °C, followed by a temperature gradient of 1 °C/min until 90 °C, recording fluorescence every 0.5 °C. Fluorescence was recorded using the FAM channel (λex = 450–490 nm, λem = 510–530 nm). Curves were fitted using the Precision Melt Analysis software (Bio-Rad).

For data set [6], the system named is KB cell line (human epithelial carcinoma cells). As to the kind of experiment: Cytotoxicity, sulforhodamine B assay, KB cells. The note with it: 72 h, when no IC50 could be determined, highest tested concentration noted. It counts as cell-based.
Data set [7] deals with Plasmodium falciparum TM4/8.2 (drug sensitive). As to the kind of experiment: Antimalarial activity, [3H]-hypoxanthine incorporation assay, TM4/8.2. It counts as cell-based. The note with it: P. falciparum TM4/8.2 (drug sensitive), when no IC50 could be determined, highest tested concentration noted. The procedure: (§3) Finally, the various hit compounds were tested for their antimalarial activity against P. falciparum TM4/8.2 [26] and V1/S [27] strains. Parasite cultures were treated with test compounds at different concentrations, and antimalarial activity was measured using [3H]-hypoxanthine incorporation assay, according to our previously reported protocol. […] IC50 values could not be measured for other compounds. At this stage, there is no explanation for the difference in antiparasitic activity observed between TM4/8.2 and V1/S strains, and more investigations would be needed to conclude on this effect.
(§4) Compounds were tested for their antimalarial activity against P. falciparum TM4/8.2 [26] and V1/S [27] strains according to our previously reported protocol. In brief, parasite strains were maintained continuously in human erythrocytes in RPMI1640 supplemented with 25 mM HEPES pH 7.4, 0.2% NaHCO3, 40 µg/mL gentamicin and 8% human serum at 37 °C under 3% CO2. For in vitro antimalarial assay, parasite was treated with serial dilutions of the inhibitors, and parasite survival was determined using a modified microdilution radioisotope technique.

Data set [8] has as its system Plasmodium falciparum V1/S (drug resistant). As to the kind of experiment: Antimalarial activity, [3H]-hypoxanthine incorporation assay, V1/S. It counts as cell-based. The note with it: Plasmodium falciparum, P. falciparum V1/S (drug resistant); when no IC50 could be determined, highest tested concentration noted. The procedure:
as §3, §4

In another data set the test system is PfHPPK. The arrangement: method as in PMID 19631695. As to conditions: substrate of monofunctional PfHPPK; cited from earlier work.
Data set [9] deals with T1, PfHPPK-GFP. Kind of data set: KinaseGlo enzyme inhibition assay. It counts as biochemical. The note with it: dose-response inhibition, read-out: IC50 against the enzyme.

Here are results for 8 molecules from article PMC9182141, “Assay Development and Identification of the First Plasmodium falciparum 7,8-dihydro-6-hydroxymethylpterin-pyrophosphokinase Inhibitors” (Molecules, 2022).

The structures appear in SMILES notation. Structures can show the parent of a compound that is named as a salt.

T1 sequence (Q25704 entry or part of it): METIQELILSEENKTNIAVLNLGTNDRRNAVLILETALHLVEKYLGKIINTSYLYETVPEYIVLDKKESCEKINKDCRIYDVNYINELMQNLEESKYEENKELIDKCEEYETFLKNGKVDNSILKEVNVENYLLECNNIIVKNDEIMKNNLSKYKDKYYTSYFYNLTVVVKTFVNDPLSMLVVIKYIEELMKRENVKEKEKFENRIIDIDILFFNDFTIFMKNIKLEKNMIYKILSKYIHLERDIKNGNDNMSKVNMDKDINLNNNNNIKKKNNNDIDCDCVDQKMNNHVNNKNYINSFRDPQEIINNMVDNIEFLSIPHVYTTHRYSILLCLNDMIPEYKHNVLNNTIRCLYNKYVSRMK

On to `CCc1nc(N)[nH]c(=O)c1CCCc1cn(-c2ccc(C(=O)O)cc2)nn1` [Compound 13, 2-Amino-6-ethyl-5-(3-(1-(4-(carboxy)phenyl)-1H-1,2,3-triazol-4-yl)propyl)pyrimidin-4(3H)-one hydrochloride], for which, at PfHPPK-GFP [1], the inhibition at 1000 µM was determined as 24.9 ± 3.1%. Besides, the IC50 in data set [2], in data set [6], in data set [7] and in data set [8] was above 50 µM each time. Also, the microsomal CLint (in general, a measure of how fast metabolising enzymes remove a compound, apart from limits set by blood flow) was below 3 µL/min/mg in data set [3] and 7.38 µL/min/mg in data set [4]. Further, the ΔTm – broadly, the shift of the melting midpoint relative to a reference – at 1000 µM at PfHPPK-GFP [5] was -1.5 °C.

In the case of `CCc1nc(N)nc(N)c1OCCCOc1ccccc1CCC(=O)O` [Compound P218, reference compound], in data set [3] (human liver microsomes, NADPH), the “CLint (HLM)” value was below 3 µL/min/mg. In data set [4] (rat liver microsomes, NADPH), the “CLint (RLM)” value is listed as below 3 µL/min/mg.

In the case of `Nc1nc(O)c2c(n1)NCC(CO)=N2` [HMDP, 2-amino-4-hydroxy-6-hydroxymethyl-7,8-dihydropteridine], the Km (as a rule, the substrate concentration at which the rate is half of its maximum) in the data set on PfHPPK is 2.1 µM.

On to `COc1nc(N)nc(N)c1/N=N/c1cccc(C(=O)O)c1` [Compound 3, (E)-3-((2,4-Diamino-6-methoxypyrimidin-5-yl)diazenyl) benzoic acid], for which the inhibition at 1000 µM at PfHPPK-GFP [1] came to 23.3 ± 4.8%. The IC50 (as a rule, the concentration at which inhibition is half-maximal) was above 100 µM in [2], above 100 µM in data set [6], above 50 µM in [7] and above 50 µM in data set [8]. In addition, the microsomal CLint in data set [3] and in data set [4] was below 3 µL/min/mg throughout. The ΔTm at 1000 µM on PfHPPK-GFP [5] is -1 °C.

For the molecule `Nc1ncnc2c1ncn2[C@@H]1O[C@H](COP(=O)(O)OP(=O)(O)OP(=O)(O)O)[C@@H](O)[C@H]1O` [ATP], the Km in the data set with PfHPPK was 13.2 µM. Moreover, on PfHPPK-GFP [5] (PfHPPK-GFP in optimal buffer in the presence of 1 mM ATP (apo form 81 °C)), the Tm (in general, the temperature at which the thermal transition is half complete) came out at 80 °C.

In the case of `Nc1nc(N)c(/N=N/c2ccccc2)c(N)n1` [Compound 4, (E)-5-(Phenyldiazenyl)pyrimidine-2,4,6-triamine], the inhibition at 1000 µM on PfHPPK-GFP [1] was 46 ± 7.5%. For the same molecule, the IC50 in [2] was 29.6 µM; in data set [6] it was 62.4 µM; in data set [7] it was 75.4 µM; in [8] it was above 50 µM. The microsomal CLint in data set [3] was found to be 363 µL/min/mg; in data set [4] it was 82.4 µL/min/mg. For the same molecule, on PfHPPK-GFP [5], the ΔTm at 1000 µM was -1 °C.

Consider `CCc1nc(N)[nH]c(=O)c1CCCc1cn(-c2cccc(C(=O)O)c2)nn1` [Compound 14, 2-Amino-6-ethyl-5-(3-(1-(3-(carboxy)phenyl)-1H-1,2,3-triazol-4-yl)propyl)pyrimidin-4(3H)-one], for which the IC50 at PfHPPK-GFP [9] was 814 ± 47 µM; in data set [2] it was above 50 µM; in [6] it was above 50 µM; in [7] it was above 50 µM; in data set [8], above 50 µM. Also, the inhibition at 1000 µM at PfHPPK-GFP [1] was 42.8 ± 5.5%. Further, the microsomal CLint in data set [3] was determined as 4.88 µL/min/mg; in data set [4] it was 7.05 µL/min/mg. Further, on PfHPPK-GFP [5], the ΔTm at 1000 µM is -1.2 ± 0.3 °C.

As to `CCc1nc(N)[nH]c(=O)c1CCc1cn(-c2ccc(C(=O)O)cc2)nn1` [Compound 11, 2-Amino-6-ethyl-5-(2-(1-(4-(carboxy)phenyl)-1H-1,2,3-triazol-4-yl)ethyl)pyrimidin-4(3H)-one hydrochloride], the inhibition at 1000 µM on PfHPPK-GFP [1] was 34.9 ± 5.5%. For the same molecule, the IC50 in [2], in [6], in data set [7] and in data set [8] was above 50 µM throughout. Further, the microsomal CLint was below 3 µL/min/mg in [3] and 6.91 µL/min/mg in [4]. Further, the ΔTm at 1000 µM on PfHPPK-GFP [5] was -1.3 ± 0.3 °C.
